Experiment [1] deals with T1, CX3CR1 (Homo sapiens (Human), UniProt P49238). The experiment in a line: hCX3CR1 [3H]-AZD8797 competitive binding assay (filter). To be noted: CHO-hCX3CR1 membranes, 2 nM [3H]-AZD8797. In outline: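 Filtration radioligand displacement assay: competitor titrations compete with 2 nM [3H]-AZD8797 for membranes from CHO cells expressing hCX3CR1 (9 μg/well). Incubation was 2 h at room temperature in HEPES pH 7.4 with MgCl2, CaCl2, 0.5% BSA and 1% DMSO. Filters were washed with ice-cold high-salt (500 mM NaCl) buffer, and retained radioactivity was scintillation-counted.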

Experiment [2] has as its target T1, CX3CR1. In words: hCX3CR1 [125I]-CX3CL1 displacement binding (SPA). To be noted: CHO-hCX3CR1 membranes, [125I]-CX3CL1, SPA beads. As to the method: hCX3CR1 [^125I]-CX3CL1 Displacement Binding (SPA)
CHO-hCX3CR1 membranes (3 μg per well) together with […] [^125I]-CX3CL1 (Perkin Elmer) and different concentrations of competitor compound were incubated together with 400 μg/well WGA coated PVT SPA beads (Perkin Elmer) in 50 mM HEPES (pH 7.4), 10 mM MgCl2, 1 mM EDTA and 0.1% Gelatin in a Greiner polystyrene flat-bottom 384-well plate. The plate was incubated for 20 h at room temperature before the radioactivity was measured using a MicroBeta Trilux reader (PerkinElmer). The DMSO concentration was held constant at 1%.

The target in experiment [3] is T1, CX3CR1. In words: CX3CR1-dependent cell adhesion to recombinant CX3CL1 in human whole blood under flow. The experiment is classed as cell-based. The note with it: recombinant full-length CX3CL1. On the procedure: (§1) Adhesion of cells to recombinant full-length human CX3CL1 was monitored under physiological flow using a Cellix VenaFlux microfluidics platform with connected fluorescent microscope and camera, and using Vena8 Fluoro+ Biochips (Cellix) pre-coated with anti-His monoclonal antibody (25 μg/mL; R&D Systems) and His-tagged full-length CX3CL1 (15 μg/mL; R&D Systems).
CX3CR1-Dependent Cell Adhesion to Recombinant CX3CL1 in Human Whole Blood Under Flow
Human whole blood from healthy volunteers was collected using heparin as anti-coagulant. […] Compound stocks or DMSO vehicle were added to 0.5 or 1.0 ml aliquots of blood such that the final concentration of DMSO was 0.1%, corresponding to a 1000-fold dilution of compound stock. Blood was pre-incubated with compound at room temperature for 60 minutes with gentle shaking. DiOC6 (Invitrogen, 5 μM) or Hoechst 33342 (Invitrogen, 300 μM) dye was subsequently added to fluorescently label cells and enable their detection during the flow adhesion assay. To monitor adhesion, blood was allowed to flow through the channels of a Vena8 Fluoro+ biochip at 2.25 dynes per cm^2 for 3-6 minutes prior to capturing images for quantification. Fluorescent cells adhering to the channels were counted and the mean and/or total count across five to six images in each channel were used for calculating concentration-response curves.

Experiment [4] concerns the target T1, CX3CR1. In words: PathHunter β-arrestin recruitment assay. Type of experiment: cell-based. The note with it: CHO-K1 CX3CR1 β-Arrestin cells, with CX3CL1. On the procedure: PathHunter β-Arrestin Recruitment Assay
β-Arrestin recruitment was measured using the PathHunter® eXpress enzyme fragment complementation assay (DiscoverX #93-0956E2). 3500 CHO-K1 CX3CR1 β-Arrestin cells/well in Opti-MEM were incubated together with different concentrations of CX3CL1 and antagonistic compound in a Greiner tissue culture treated flat-bottom 384-well plate. After 90 min of incubation at 37° C., the detection reagent supplied in the kit was added and incubation continued for 1 h at room temperature, before reading the luminescence with a Victor2 luminescence plate reader (PerkinElmer). The final DMSO concentration was held constant at 1%.

In experiment [5] the target is T1, CX3CR1. The experiment in a line: Flow adhesion for human B-lymphocyte cell line RPMI-8226. To be noted: RPMI-8226 cells under flow, recombinant full-length CX3CL1. The experiment is classed as cell-based. As to the method:
as §1
Flow Adhesion for Human B-Lymphocyte Cell Line RPMI-8226
Cells were cultured in RPMI 1640 medium with GlutaMAX and 20% FBS (HyClone, Perbio). Before each experiment, cells were centrifuged at 320 g and resuspended to 5×10^6 cells per ml in RPMI 1640 with 1% FBS. Cells were pre-incubated for 15 minutes at room temperature with CX3CR1 antagonist in an 8-step 3-fold dilution series starting at 3.3 μM. DMSO concentration was kept constant for all antagonist concentrations at 0.1%. Cells were pumped through the channels of the Vena8 Fluoro+ biochip at 0.5 dynes per cm2 for 3 m prior to capturing microscope images for quantification. Cells adhering to channels were counted and the mean values across five images in each channel were used for calculating the concentration-response curves.

T1 sequence (P49238 whole entry): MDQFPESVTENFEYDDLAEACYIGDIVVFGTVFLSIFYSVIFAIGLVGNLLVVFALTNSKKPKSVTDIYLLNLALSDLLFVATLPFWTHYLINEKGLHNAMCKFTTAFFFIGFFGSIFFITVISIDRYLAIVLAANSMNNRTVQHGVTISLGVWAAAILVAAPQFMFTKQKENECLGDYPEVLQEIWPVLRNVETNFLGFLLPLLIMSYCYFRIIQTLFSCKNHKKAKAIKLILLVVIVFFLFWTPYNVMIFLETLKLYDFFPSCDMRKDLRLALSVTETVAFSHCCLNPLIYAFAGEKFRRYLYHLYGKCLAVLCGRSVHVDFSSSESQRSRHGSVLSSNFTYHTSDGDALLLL

Broadly, the IC50 is the concentration that inhibits the measured activity by half. Usually EC50 stands for the midpoint of the concentration-response curve. Low values mean a more potent agent, high ones a less potent agent. As for `COc1ncc([C@H](C)Cc2nc(N[C@@H](CO)CC(C)C)nc(NS(C)(=O)=O)n2)cc1F` (single isomer, unassigned) [Example 7, N-(4-((R*)-2-(5-Fluoro-6-methoxypyridin-3-yl)propyl)-6-(((R)-1-hydroxy-4-methylpentan-2-yl)amino)-1,3,5-triazin-2-yl)methanesulfonamide], the 50% inhibitory concentration (IC50) is 55 nM in experiment [1], above 10000 nM in experiment [2], 2460 nM in experiment [3] and 128 nM in experiment [5]. Further, in experiment [4], the EC50 turned out to be 400 nM.

With `CC(C)C[C@H](CO)Nc1nc(C[C@@H](C)c2cnc(C3CC3)nc2)nc(NS(C)(=O)=O)n1` (single isomer, unassigned) [Example 12, N-(4-((R*)-2-(2-Cyclopropylpyrimidin-5-yl)propyl)-6-(((R)-1-hydroxy-4-methylpentan-2-yl)amino)-1,3,5-triazin-2-yl)methanesulfonamide], the IC50 was found to be 176 nM in experiment [1], 1860 nM in experiment [2] and 255 nM in experiment [5].

As to `COc1cc(F)c([C@H](C)Cc2nc(N[C@@H](CO)CC(C)C)nc(NS(C)(=O)=O)n2)cn1` (single isomer, unassigned) [Example 46, N-(4-((R*)-2-(4-Fluoro-6-methoxypyridin-3-yl)propyl)-6-(((R)-1-hydroxy-4-methylpentan-2-yl)amino)-1,3,5-triazin-2-yl)methanesulfonamide], the half-maximal inhibitory concentration (IC50) turned out to be 52 nM in experiment [1] and 1400 nM in experiment [3]. In experiment [4], this compound displayed an EC50 of 100 nM.

Regarding `COc1ccc([C@@H](C)Cc2nc(N[C@@H](CO)CC(C)C)nc(NS(C)(=O)=O)n2)cn1` (single isomer, unassigned) [Example 75, N-(4-(((R)-1-Hydroxy-4-methylpentan-2-yl)amino)-6-((S*)-2-(6-methoxypyridin-3-yl)propyl)-1,3,5-triazin-2-yl)methanesulfonamide], the IC50 in experiment [1] was 2700 nM; in experiment [2] it was 5180 nM; in experiment [5], above 3000 nM.

Consider `COc1ccc([C@H](C)Cc2nc(N[C@@H](CO)CC(C)C)nc(NS(C)(=O)=O)n2)cn1` (single isomer, unassigned) [Example 76, N-(4-(((R)-1-Hydroxy-4-methylpentan-2-yl)amino)-6-((R*)-2-(6-methoxypyridin-3-yl)propyl)-1,3,5-triazin-2-yl)methanesulfonamide], for which the values for the IC50 in experiment [1], in experiment [2] and in experiment [5] were 48 nM, 886 nM and 158 nM, respectively.

Regarding `CC(C)C[C@H](CO)Nc1nc(C[C@@H](C)c2ccc(F)cc2)nc(NS(C)(=O)=O)n1` (single isomer, unassigned) [Example 79, N-(4-((R*)-2-(4-Fluorophenyl)propyl)-6-(((R)-1-hydroxy-4-methylpentan-2-yl)amino)-1,3,5-triazin-2-yl)methanesulfonamide], the IC50 in experiment [1] is 198 nM; in experiment [2], 2470 nM; in experiment [5], 54 nM.

As to `COc1ccc([C@H](C)Cc2nc(N[C@@H](CO)CC(C)C)nc(NS(C)(=O)=O)n2)c(F)c1` (single isomer, unassigned) [Example 81, N-(4-((R*)-2-(2-Fluoro-4-methoxyphenyl)propyl)-6-(((R)-1-hydroxy-4-methylpentan-2-yl)amino)-1,3,5-triazin-2-yl)methanesulfonamide], the IC50 in experiment [1] was 49 nM; in experiment [2], 470 nM; in experiment [3], 3080 nM; in experiment [5] it was 14 nM.

For `COc1ccc([C@@H](C)Cc2nc(N[C@@H](CO)CC(C)C)nc(NS(C)(=O)=O)n2)c(F)c1` (single isomer, unassigned) [Example 82, N-(4-((S*)-2-(2-Fluoro-4-methoxyphenyl)propyl)-6-(((R)-1-hydroxy-4-methylpentan-2-yl)amino)-1,3,5-triazin-2-yl)methanesulfonamide], the IC50 in experiment [1] is 128 nM; in experiment [2], 566 nM; in experiment [5], 11 nM.

With `CC(C)C[C@H](CO)Nc1nc(C[C@H](C)c2ccc(Cl)cc2F)nc(NS(C)(=O)=O)n1` (single isomer, unassigned) [Example 83, N-(4-((S*)-2-(4-Chloro-2-fluorophenyl)propyl)-6-(((R)-1-hydroxy-4-methylpentan-2-yl)amino)-1,3,5-triazin-2-yl)methanesulfonamide], the IC50 stood at 156 nM in experiment [1], 424 nM in experiment [2] and 1290 nM in experiment [3].

Regarding `COc1ccc([C@H](C)Cc2nc(N[C@@H](CO)CC(C)C)nc(NS(C)(=O)=O)n2)c(F)n1` (single isomer, unassigned) [Example 85, N-(4-((R*)-2-(2-Fluoro-6-methoxypyridin-3-yl)propyl)-6-(((R)-1-hydroxy-4-methylpentan-2-yl)amino)-1,3,5-triazin-2-yl)methanesulfonamide], the IC50 in experiment [1] came to 18 nM; in experiment [3], 691 nM. In addition, it took 50 nM to reach a half-maximal effect in experiment [4] (EC50).

Consider `CC(C)C[C@H](CO)Nc1nc(C[C@H](C)c2cccc(F)c2F)nc(NS(C)(=O)=O)n1` (single isomer, unassigned) [Example 143, N-(4-((S*)-2-(2,3-Difluorophenyl)propyl)-6-(((R)-1-hydroxy-4-methylpentan-2-yl)amino)-1,3,5-triazin-2-yl)methanesulfonamide], for which the figures for the IC50 in experiment [1], in experiment [2] and in experiment [5] were 156 nM, 430 nM and 522 nM, respectively.

Take `CC(C)C[C@H](CO)Nc1nc(C[C@H](C)c2ccccc2F)nc(NS(C)(=O)=O)n1` (single isomer, unassigned) [Example 145, N-(4-((S*)-2-(2-Fluorophenyl)propyl)-6-(((R)-1-hydroxy-4-methylpentan-2-yl)amino)-1,3,5-triazin-2-yl)methanesulfonamide]: the IC50 in experiment [1] worked out at 129 nM; in experiment [2], 637 nM; in experiment [3], 543 nM; in experiment [5] it was 28 nM.

With `CC(C)C[C@H](CO)Nc1nc(C[C@@H](C)c2ccccc2F)nc(NS(C)(=O)=O)n1` (single isomer, unassigned) [Example 146, N-(4-((R*)-2-(2-Fluorophenyl)propyl)-6-(((R)-1-hydroxy-4-methylpentan-2-yl)amino)-1,3,5-triazin-2-yl)methanesulfonamide], the IC50 stood at 23 nM in experiment [1], 180 nM in experiment [2], 233 nM in experiment [3] and 11 nM in experiment [5].

Consider `CC(C)C[C@H](CO)Nc1nc(C[C@@H](C)c2ccccc2)nc(NS(C)(=O)=O)n1` (single isomer, unassigned) [Example 148, N-(4-(((R)-1-Hydroxy-4-methylpentan-2-yl)amino)-6-((R*)-2-phenylpropyl)-1,3,5-triazin-2-yl)methanesulfonamide], for which the IC50 was 37 nM in experiment [1], 484 nM in experiment [2], 326 nM in experiment [3] and 37 nM in experiment [5].

On to `CC(C)C[C@H](CO)Nc1nc(C[C@@H](C)c2ccc(Cl)cn2)nc(NS(C)(=O)=O)n1` (single isomer, unassigned) [Example 150, N-(4-((R*)-2-(5-Chloropyridin-2-yl)propyl)-6-(((R)-1-hydroxy-4-methylpentan-2-yl)amino)-1,3,5-triazin-2-yl)methanesulfonamide], for which the IC50 in experiment [1] worked out at 185 nM; in experiment [2], 1530 nM; in experiment [3] it was 1600 nM.
